# Measurements taken from patent USH1209H, “No-carrier-added (18F)-N-methylspiroperidol” (The United States of America as represented by the United …, priority 1985, dated 1993).
# Like-named read-outs stand apart in the source and are kept apart here.
# Experiments:
# [1] = Tissue distribution of radioactivity in mice; format: in vivo, mouse; details: for tissue uptake at 5 min / tissue uptake at 1 h / tissue uptake at 2 h: read-out: Tissue distribution, % Dose/g
# Excerpt: As noted in Example 3 for the rat, the mouse brain uptake of radioactivity was higher for radiolabeled N-methylspiroperidol (1.1% of the administered dose).
# [2] = Baboon plasma analyses (total plasma radioactivity clearance and unchanged radioligand); details: for remaining at 40 s / remaining at 4 min / remaining at 10 min / remaining at 0.5 h / remaining at 1 h / remaining at 2 h / remaining at 3 h / remaining at 4 h: plasma; for remaining at 40 s: 0.67 min after injection; for remaining at 4 min: 4.0 min after injection; for remaining at 0.5 h: 30 min after injection; for remaining at 1 h: 60 min after injection; for remaining at 2 h: 120 min after injection; for remaining at 3 h: 180 min after injection; for remaining at 4 h: 240 min after injection
# Excerpt: (§1) A young adult (12 kg) female baboon (Papio anubis) was anesthesized initially with ketamine and subsequently maintained under halothane/nitrous oxide anesthesia for two PETT studies. […] Pett scans were made continually for 4 hrs from the time of radioisotope injection.
# Blood was sampled from the femoral artery at initial intervals of 5 secs. Aliquots of plasma were counted to determine the total plasma radioactivity of clearance curves.
# [3] = tested on: dopamine receptors; assay: PETT baboon studies: striatum and cerebellum radioactivity after i.v. [^18 F]-N-methylspiroperidol, with (-)- or (+)-butaclamol pretreatment
# Excerpt: as §1
# [4] = Metabolic stability and uptake in rat brain (striatum, cerebellum); format: in vivo, rat (male BNL R strain); details: for remaining at 1 h / remaining at 4 h: iv, n = 2; for remaining at 1 h: 1 h after injection; for remaining at 4 h: 4 h after injection
# [5] = baboon, iv, % [^18 F]-N-Methylspiroperidol in Plasma, baboon plasma
# [6] = baboon, iv, % of ^18 F in CH3 CN as [^18 F]-N-Methylspiroperidol, baboon plasma
smiles,measurement,setting,value
CN1CN(c2ccccc2)C2(CCN(CCCC(=O)c3ccc([18F])cc3)CC2)C1=O [[^18 F]-N-methylspiroperidol],tissue distribution of radioactivity compared with that reported for N-[^11 C] methylspiroperidol,[1]; mouse,very little difference
same,tissue uptake at 5 min,"[1]; mouse blood, 5 min, mean of three mice, range 1.0-1.5",1.2 %ID/g
same,tissue uptake at 1 h,"[1]; mouse blood, 60 min, mean of three mice, range 0.40-0.50",0.45 %ID/g
same,tissue uptake at 2 h,"[1]; mouse blood, 120 min, mean of four mice, range 0.15-0.27",0.19 %ID/g
same,mouse brain uptake of radioactivity,[1]; mouse brain,1.1 % of the administered dose
same,"Tissue distribution, % Dose/Organ","[1]; mouse brain, 5 min, mean of three mice, range 1.0-1.1",1.1 % Dose/Organ
same,tissue uptake at 5 min,"[1]; mouse brain, 5 min, mean of three mice, range 2.2-2.4",2.3 %ID/g
same,"Tissue distribution, % Dose/Organ","[1]; mouse brain, 60 min, mean of three mice, range 0.60-0.74",0.68 % Dose/Organ
same,tissue uptake at 1 h,"[1]; mouse brain, 60 min, mean of three mice, range 1.3-1.8",1.5 %ID/g
same,"Tissue distribution, % Dose/Organ","[1]; mouse brain, 120 min, mean of four mice, range 0.43-0.68",0.57 % Dose/Organ
same,tissue uptake at 2 h,"[1]; mouse brain, 120 min, mean of four mice, range 1.1-1.6",1.3 %ID/g
same,"Tissue distribution, % Dose/Organ","[1]; mouse heart, 5 min, mean of three mice, range 0.35-0.42",0.37 % Dose/Organ
same,tissue uptake at 5 min,"[1]; mouse heart, 5 min, mean of three mice, range 3.2-3.4",3.3 %ID/g
same,"Tissue distribution, % Dose/Organ","[1]; mouse heart, 60 min, mean of three mice, range 0.064-0.076",0.072 % Dose/Organ
same,tissue uptake at 1 h,"[1]; mouse heart, 60 min, mean of three mice, range 0.59-0.65",0.61 %ID/g
same,"Tissue distribution, % Dose/Organ","[1]; mouse heart, 120 min, mean of four mice, range 0.020-0.030",0.026 % Dose/Organ
same,tissue uptake at 2 h,"[1]; mouse heart, 120 min, mean of four mice, range 0.18-0.35",0.24 %ID/g
same,"Tissue distribution, % Dose/Organ","[1]; mouse kidneys, 5 min, mean of three mice, range 4.2-4.8",4.5 % Dose/Organ
same,tissue uptake at 5 min,"[1]; mouse kidneys, 5 min, mean of three mice, range 11-13",12 %ID/g
same,"Tissue distribution, % Dose/Organ","[1]; mouse kidneys, 60 min, mean of three mice, range 1.1-1.3",1.2 % Dose/Organ
same,tissue uptake at 1 h,"[1]; mouse kidneys, 60 min, mean of three mice, range 3.0-4.0",3.4 %ID/g
same,"Tissue distribution, % Dose/Organ","[1]; mouse kidneys, 120 min, mean of four mice, range 0.40-0.57",0.46 % Dose/Organ
same,tissue uptake at 2 h,"[1]; mouse kidneys, 120 min, mean of four mice, range 1.2-1.8",1.5 %ID/g
same,tissue uptake at 5 min,"[1]; mouse liver, 5 min, mean of three mice, range 5.2-5.7",5.4 %ID/g
same,"Tissue distribution, % Dose/Organ","[1]; mouse liver, 5 min, mean of three mice, range 8.2-8.3",8.2 % Dose/Organ
same,tissue uptake at 1 h,"[1]; mouse liver, 60 min, mean of three mice, range 2.4-3.4",2.9 %ID/g
same,"Tissue distribution, % Dose/Organ","[1]; mouse liver, 60 min, mean of three mice, range 3.8-4.1",4.0 % Dose/Organ
same,tissue uptake at 2 h,"[1]; mouse liver, 120 min, mean of four mice, range 1.2-1.9",1.4 %ID/g
same,"Tissue distribution, % Dose/Organ","[1]; mouse liver, 120 min, mean of four mice, range 1.5-1.8",1.6 % Dose/Organ
same,"Tissue distribution, % Dose/Organ","[1]; mouse lungs, 5 min, mean of three mice, range 2.0-2.1",2.0 % Dose/Organ
same,tissue uptake at 5 min,"[1]; mouse lungs, 5 min, mean of three mice, range 11-14",13 %ID/g
same,"Tissue distribution, % Dose/Organ","[1]; mouse lungs, 60 min, mean of three mice, range 0.24-0.29",0.27 % Dose/Organ
same,tissue uptake at 1 h,"[1]; mouse lungs, 60 min, mean of three mice, range 1.6-2.3",1.9 %ID/g
same,"Tissue distribution, % Dose/Organ","[1]; mouse lungs, 120 min, mean of four mice, range 0.09-0.16",0.12 % Dose/Organ
same,tissue uptake at 2 h,"[1]; mouse lungs, 120 min, mean of four mice, range 0.70-1.50",0.95 %ID/g
same,"Tissue distribution, % Dose/Organ","[1]; mouse ovaries, 60 min, mean of three mice, range 0.028-0.057",0.040 % Dose/Organ
same,"Tissue distribution, % Dose/Organ","[1]; mouse ovaries, 120 min, mean of four mice, range 0.009-0.022",0.014 % Dose/Organ
same,"Tissue distribution, % Dose/Organ","[1]; mouse small intestine, 5 min, mean of three mice, range 3.2-6.8",5.3 % Dose/Organ
same,tissue uptake at 5 min,"[1]; mouse small intestine, 5 min, mean of three mice, range 4.0-4.8",4.3 %ID/g
same,"Tissue distribution, % Dose/Organ","[1]; mouse small intestine, 60 min, mean of three mice, range 1.6-3.6",2.9 % Dose/Organ
same,tissue uptake at 1 h,"[1]; mouse small intestine, 60 min, mean of three mice, range 1.7-3.4",2.5 %ID/g
same,"Tissue distribution, % Dose/Organ","[1]; mouse small intestine, 120 min, mean of four mice, range 0.7-1.9",1.3 % Dose/Organ
same,tissue uptake at 2 h,"[1]; mouse small intestine, 120 min, mean of four mice, range 0.8-1.7",1.3 %ID/g
same,"Tissue distribution, % Dose/Organ","[1]; mouse spleen, 5 min, mean of three mice, range 0.82-1.05",0.95 % Dose/Organ
same,tissue uptake at 5 min,"[1]; mouse spleen, 5 min, mean of three mice, range 4.7-6.5",5.8 %ID/g
same,"Tissue distribution, % Dose/Organ","[1]; mouse spleen, 60 min, mean of three mice, range 0.25-0.28",0.26 % Dose/Organ
same,tissue uptake at 1 h,"[1]; mouse spleen, 60 min, mean of three mice, range 1.1-1.9",1.6 %ID/g
same,"Tissue distribution, % Dose/Organ","[1]; mouse spleen, 120 min, mean of four mice, range 0.043-0.073",0.062 % Dose/Organ
same,tissue uptake at 2 h,"[1]; mouse spleen, 120 min, mean of four mice, range 0.40-0.73",0.57 %ID/g
same,time course of distribution compared with [^18 F]spiroperidol,[2]; Example 2,more rapid
same,appearance of peripheral radioactive metabolites compared with [^18 F]spiroperidol,[2]; baboon plasma,more rapid
same,time for blood radioactivity to drop below the brain concentration,"[2]; baboon, after injection",≤ 90 s
same,remaining at 40 s,[2]; [5],81%
same,remaining at 4 min,[2]; [5],66%
same,remaining at 10 min,"[2]; baboon, iv, % [^18 F]-N-Methylspiroperidol in Plasma, baboon plasma, 10 min after injection",43%
same,remaining at 0.5 h,[2]; [5],18%
same,remaining at 1 h,[2]; [5],18%
same,remaining at 2 h,[2]; [5],11%
same,remaining at 3 h,[2]; [5],11%
same,remaining at 4 h,[2]; [5],9.4%
same,remaining at 40 s,[2]; [6],88%
same,remaining at 4 min,[2]; [6],78%
same,remaining at 10 min,"[2]; baboon, iv, % of ^18 F in CH3 CN as [^18 F]-N-Methylspiroperidol, baboon plasma, 10 min after injection",60%
same,remaining at 0.5 h,[2]; [6],32%
same,remaining at 1 h,[2]; [6],36%
same,remaining at 2 h,[2]; [6],26%
same,remaining at 3 h,[2]; [6],29%
same,remaining at 4 h,[2]; [6],26%
same,remaining at 10 min,"[2]; baboon, plasma radioactivity due to unaltered radioligand, baboon plasma, 10 mins after injection",43%
same,blood clearance,"[2]; baboon, total plasma radioactivity",very rapid
same,specifically bound component of radioactivity in the striatum (striatum minus cerebellum),[3]; 4 hrs after injection,still increasing at 4 hrs after injection
same,"striatum and cerebellum radioactivity curves, access to specific binding sites",[3]; after 0.5 mg/kg (+)-butaclamol pretreatment,no longer had access to specific binding sites
same,radioactivity in the cerebellum,"[3]; after the first few minutes, control study",declined rapidly in the cerebellum
same,"absolute striatal uptake, excess over [^18 F]spiroperidol","[3]; control study, (-)-butaclamol 0.5 mg/kg pretreatment",more than two-fold
same,Influx into striatum and cerebellum,"[3]; first few minutes, control study",equal for the first few minutes
same,radioactivity in the striatum,"[3]; up to 4 hrs, control study",increasing for up to 4 hrs in the striatum
same,remaining at 1 h,"[4]; rat cerebellum, ind. values 90, 90",90%
same,remaining at 4 h,"[4]; rat cerebellum, ind. values 85, 85",85%
same,remaining at 1 h,"[4]; rat striatum, ind. values 95, 96",96%
same,remaining at 4 h,"[4]; rat striatum, ind. values 98, 97",98%
same,metabolism in the rat brain,[4]; rat brain,very little metabolism
